What was measured:
Capan-2 cell homogenate = test: Prodrug hydrolysis in Capan-2 cell homogenate with the presence and the absence of selective enzyme inhibitors; type: in vitro ADME; details: 37 °C
Procedure: Hydrolysis StudiesPreparation of Capan-2 cell homogenates. Preparation of cell homogenates has been reported previously. Confluent Capan-2 cells (2 plates; 150 mm × 25 mm plate) were rinsed with saline twice. The cells were washed off with 5 mL of pH 7.4 phosphate buffer (10 mmol/L) and the lysed cells by ultrasonication (Micro ultrasonic cell disrupter Model KT40, Kontes, Vineland, NJ, USA) were spun down by centrifugation.
(§1) Preparation of Cytosolic Enzyme Extract. Confluent Caco-2 cells and Capan-2 cells (2 plates; 150 mm × 25 mm plate) were rinsed with saline twice. The cells were washed off with 1 mL of pH 7.4 phosphate buffer (10 mmol/L) and the enzymes were extracted through 30 gauge needle 10 times in ice-cold bath. Cell suspension was spun at 10,000 × g for 2 h at 4 °C and the supernatant was spun at 39,000 × g for 2 h at 4 °C. Protein amount was quantified with the Bio-Rad (Hercules, CA, USA) DC Protein Assay using bovine serum albumin as a standard. The protein amount was adjusted to 500 µg/mL and the hydrolysis reactions were carried out in 96-well plates (Corning). Caco-2 cells and Capan-2 cell suspensions (250 µL) were placed in triplicate wells either presence or absence of various inhibitors, the reactions were started with the addition of substrate (200 µM), and wells were incubated at 37 °C for 120 min (time points; 0, 5, 10, 30, 60, and 120 min). At each time point, aliquot sample (35 µL) was removed and added to 150 µL of acetonitrile (ACN) with 0.1% TFA to prevent the further degradation. The mixtures were filtered with a 0.45 µm filters at 1,000 × g for 10 min at 4 °C. The filtrate wasthen analyzed via reverse-phaseHPLC.
(§2) The initial rates of hydrolysis were used to obtain the apparent first-order rate constants and estimate the half-lives. The apparent first-order degradation rate constants of various floxuridine prodrugs at 37 °C were determined by plotting the logarithm of prodrug remaining as a function of time. The slopes of these plots are related to the rate constant, k, and given by:
k = 2.303 × slope (log C vs. time) (1)
The degradation half-lives were then estimated by the equation: […]
(§3) The concentrations of prodrugs and their metabolites were determined on a Waters HPLC system (Waters, Inc., Milford, MA, USA). The HPLC system consisted of two Waters pumps (model 515), a Waters autosampler (WISP model 712), and a Waters UV detector (996 photodiode array detector). The system was controlled by Waters Millennium 32 software (version 3.0.1). Samples were injected onto a Waters Xterra C18 reverse-phase column (5 µm, 4.6 × 250 mm) equipped with a guard column. The compounds were eluted using gradient method. All prodrugs were run with the solvent B gradient changing 0% to 56% at a rate of 2%/min during a 28-min run. Standard curves generated for each prodrug and their parent drugs were used for quantitation of integrated area under peaks.

human cathepsin B = molecular target: T1, human cathepsin B (Homo sapiens, UniProt P07858); test: Prodrug stability with human cathepsin B; type: biochemical; details: pH 7.4 phosphate buffer, 37 °C, 200 µM substrate
T1 construct: cathepsin B (human liver), and cathepsin D (human liver) were obtained from Sigma Chemical Co; purchased Sigma Chemical Co (St. Louis, MO, USA); host or cells: human liver (tissue-derived)
Description: (§4) The high expression levels of cathepsins in tumors have been reported. It has been investigated if the protein levels of cathepsin B and D would associate with pathological parameters in order to assess the difference in protein levels of cathepsins as possible tumor biomarkers. Cathepsin B, one of the highest gene expressions in enzymes of Capan-2 cell, is a cysteine endopeptidase and reportedly has similar activity to carboxypeptidase and peptidyl-dipeptidase. On the other hand, cathepsin D has been reported that it preferentially hydrolyzes the peptide bond of bulky hydrophobic amino acids and the peptide bond between Phe-Phe of Bz-Arg-Gly-Phe-Phe-Pro-4MbNA [75, 76, 77]. The metabolic stability of floxuridine prodrugs was assessed using human cathepsin B and D in pH 7.4 phosphate buffer. […] However, the enzyme specificity between cathepsin B and D in prodrug activation for those two prodrugs was not observed.
(§5) Prodrug stability with Cathepsin B and D. Lyophilized enzyme powder was dissolved and adjusted to 2.5 mg/mL of pure enzyme, human cathepsin B and D. The hydrolysis reactions were immediately started by adding substrates (200 µM) in 96-well plates (Corning). The reactions were carried out at 37 °C for 120 min (time points; 0, 5, 10, 30, 60, and 120 min). At each time point, aliquot sample (35 µL) was removed and added to 150 µL of acetonitrile (ACN) with 0.1% TFA. The mixtures were filtered with a 0.45 µm filters at 1,000 × g for 10 min at 4 °C. The filtrate was then analyzed via reverse-phase HPLC.
as §2, with “The slopes of these plots are related to the rate constant, k, and given by:” left out
(§6) The concentrations of prodrugs and their metabolites were determined on a Waters HPLC system (Waters, Inc., Milford, MA, USA). […] Standard curves generated for each prodrug and their parent drugs were used for quantitation of integrated area under peaks.

human cathepsin D = molecular target: T2, human cathepsin D (Homo sapiens, UniProt P07339); test: Prodrug stability with human cathepsin D; type: biochemical; details: pH 7.4 phosphate buffer, 37 °C, 200 µM substrate
T2 construct: cathepsin B (human liver), and cathepsin D (human liver) were obtained from Sigma Chemical Co; purchased Sigma Chemical Co (St. Louis, MO, USA); host or cells: human liver (tissue-derived)
Description: as §4, §5
as §2, with “The slopes of these plots are related to the rate constant, k, and given by:” left out
as §6

[1] = test system: Capan-2 cell homogenates and cytosolic enzyme extracts; test: Prodrug stability in cytosolic enzyme extract versus whole cell homogenate of Capan-2 cells; type: in vitro ADME
Procedure: In stability studies of test compounds in cell homogenates, the location of enzymes in living cells is not considered and the inaccessible enzymes in vivo condition may be able to degrade those analytes in this in vitro setting. Therefore, the result of prodrug stabilities in cell homogenate may be different to one in vivo, where all enzymes are arranged in all specific locations. The experiments of prodrug activation concerning the location of enzymes in cells were performed at 37 °C in Capan-2 cell homogenates and in cytosolic enzyme extracts. For the comparison purpose, the same experiments were performed at 37 °C in Caco-2 cell homogenates and in cytosolic enzyme extracts. […] The difference between them was minimal (1.4- to 2.5 fold). […] In Capan-2 cells, the stabilities of 5′-O-L-phenylalanyl-L-glycylfloxuridine and 5′-O-L-phenylalanylfloxuridine were improved 7.4- and 7.3-fold, while the ones of 5′-O-L- phenylalanyl-L-tyrosylfloxuridine and 5′-O-L-glycyl-L-leucylfloxuridine were declined 3.9- and 6.0-fold, respectively.
as §1, §2, §3

Capan-2 cell lines = test: Cell proliferation (XTT) assay; type: cell-based; details: 4 mmol/L, 4 h drug treatment
Procedure: The percentage of growth inhibition for amino acid/dipeptide monoester prodrugs of floxuridine in Capan-2 cell was evaluated via 2,3-bis[2-methoxy-4-nitro-5-sulfophenyl]-2H-tetrazolium-5-carboxanilideinner salt (XTT) assays (Figure 3). The growth inhibitory effect of tested floxuridine prodrugs after 4 h drug treatment range from 0.0–91.1% at 4 h, 0.0–84.2% at 8 h, and 41.8–84.8% at 24 h in Capan-2 cell lines. […] While specific activation enzymes for 5′-O-L-leucyl-L-glycylfloxuridine and 5′-O-L-phenylalanylfloxuridine have not been identified, those enzymes may be highly localized at the plasma membrane and cytosol. Thus, the activation of those prodrugs took place immediately after translocation of prodrugs into the cells and started inhibiting tumor growth. Leucine and phenylalanine are reportedly good substrates for aminopeptidases and carboxylesterase, respectively.
Cell proliferation studies were conducted with Capan-2 cell lines. The cells were seeded into 96-well plates at […] per well and allowed to attach/grow for 24 h before drug solutions were added. The culture medium (RPMI-1640 + 10% fetal bovine serum) was removed and the cells were gently washed once with sterile pH 6.0 uptake buffer (145 mM NaCl, 0.5 mM MgCl2, 1 mM NaH2PO4, 1 mM CaCl2, 3 mM KCl, 5 mM glucose, and 5 mM MES). Floxuridine prodrugs and floxuridine were diluted in pH 6.0 uptake buffer to 4 mmol/L using no drug as a 100% viability control. The wash buffer was removed and 25 µL drug solution per well were added and incubated at 37 °C for 4 h in the cell incubator. After this time, the drug solutions were removed and the cells were again gently washed twice with sterile uptake buffer. RPMI-1640 was then added to each well after washing. The cells were allowed to recover for 4 h, 8 h, or 24 h before evaluating cell viability via 2,3-bis[2-methoxy-4-nitro-5-sulfophenyl]-2H-tetrazolium-5-carboxanilide inner salt (XTT) assays. […] Absorbance readings at 450 nm were recorded.

[2] = design: method as in PMID 18719516; details: pH 7.4 phosphate buffer; mean ± s.d.; ref [50]; cited from earlier work

T2 sequence (P07339 169-412 limits assumed): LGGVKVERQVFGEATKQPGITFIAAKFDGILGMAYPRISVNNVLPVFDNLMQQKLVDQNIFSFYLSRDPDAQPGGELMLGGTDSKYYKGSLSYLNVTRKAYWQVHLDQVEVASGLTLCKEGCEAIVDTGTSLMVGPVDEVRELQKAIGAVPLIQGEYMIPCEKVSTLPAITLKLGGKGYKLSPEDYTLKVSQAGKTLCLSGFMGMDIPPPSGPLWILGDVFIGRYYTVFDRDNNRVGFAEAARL
T2 sequence (P07339 65-162 limits assumed): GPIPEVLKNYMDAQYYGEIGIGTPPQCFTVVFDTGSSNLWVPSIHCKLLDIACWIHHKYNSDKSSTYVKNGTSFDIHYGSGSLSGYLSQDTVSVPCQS

- Half Life, DPP 3 Inhibitor (Capan-2 cell homogenate; Capan-2 cell homogenate with 1,10-phenanthroline, pH 7.4): 30.1 ± 10.0 min
- Half Life, TPP 2 Inhibitor (Capan-2 cell homogenate; Capan-2 cell homogenate with H-Ala-Ala-Phe-CMK CF3CO2H, pH 7.4): 19.6 ± 0.4 min
- Half Life, Cathepsin D Inhibitor (Capan-2 cell homogenate; Capan-2 cell homogenate with pepstatin A, pH 7.4): 10.2 ± 3.0 min
- Half Life, Aminopeptidase Inhibitor (Capan-2 cell homogenate; Capan-2 cell homogenate with puromycin, pH 7.4): 25.7 ± 0.4 min
- Half Life, Capan-2 Cell Homogenate (Capan-2 cell homogenate; no inhibitor, pH 7.4 phosphate buffer, 200 µM substrate, mean ± s.d.): 4.3 ± 0.9 min
- Stability (degradation) against cathepsin B compared with absence of enzyme (human cathepsin B): significant degradation
- Stability (degradation) against cathepsin D compared with absence of enzyme (human cathepsin D): significant degradation
- Hydrolysis products detected in cell homogenates and cytosolic enzyme extracts [1]: only floxuridine was detected
- Fold longer half life (stability improved) in cytosolic extract than in Capan-2 cell homogenate ([1]; 37 °C, pH 7.4 phosphate buffer): 7.4 fold
SMILES: N[C@@H](Cc1ccccc1)C(=O)NCC(=O)OC[C@H]1O[C@@H](n2cc(F)c(=O)[nH]c2=O)C[C@@H]1O [5'-O-L-phenylalanyl-L-glycyl-floxuridine]
- Growth inhibition of cancer cells at 4 h and 8 h (Capan-2 cell lines): did not exhibit the growth inhibition of cancer cells
- Half Life, Phosphate Buffer pH 7.4 [2]: 132.1 ± 10.2 min
